Assay results from patent US8822468B2 (Novartis AG, priority 2008, dated 2014).

The molecules below were run against T1, cMET receptor tyrosine kinase (GST-cMET (969-1390)) (Homo sapiens, UniProt P08581) (assay: EPK cMET profiling assay (LanthaScreen TR-FRET antibody based kinase phosphorylation assay)). Conditions: purified recombinant GST-cMET (969-1390), 2 μM ATP, 50 nM Fluorescein-PolyEAY, 60 minutes at room temperature; read-out: c-Met IC50.
T1 construct: made in house
Format: biochemical
Outline: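 GST-cMET cytoplasmic domain (969-1390), 0.3 nM, phosphorylated 50 nM fluorescein-PolyEAY with 2 µM ATP, Mg2+/Mn2+, 0.6% DMSO, 60 min at room temperature. Stopped with EDTA; Tb-PY20 antibody TR-FRET single end-point read. Final compound concentrations 10 to 0.003 µM, 8 points.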

T1 sequence (P08581 969-1390): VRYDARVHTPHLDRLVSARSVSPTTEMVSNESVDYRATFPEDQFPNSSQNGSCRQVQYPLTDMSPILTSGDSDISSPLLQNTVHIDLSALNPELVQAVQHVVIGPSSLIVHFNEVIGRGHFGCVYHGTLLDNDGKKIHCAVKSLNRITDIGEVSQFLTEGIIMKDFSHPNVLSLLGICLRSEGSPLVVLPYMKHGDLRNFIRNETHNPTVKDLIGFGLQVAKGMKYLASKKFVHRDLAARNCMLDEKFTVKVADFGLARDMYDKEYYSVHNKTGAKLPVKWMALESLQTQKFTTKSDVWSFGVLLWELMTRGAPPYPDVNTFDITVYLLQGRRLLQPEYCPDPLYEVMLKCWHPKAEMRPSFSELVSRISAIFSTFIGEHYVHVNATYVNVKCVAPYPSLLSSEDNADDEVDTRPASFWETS

Compound | IC50 [µM]
C[C@H](c1c(F)cc2ncccc2c1F)c1cnc2ccc(-c3cnn(CCO)c3)nn12 [Example 183, 2-(4-{3-[(R)-1-(5,7-Difluoro-quinolin-6-yl)-ethyl]-imidazo[1,2-b]pyridazin-6-yl}-pyrazol-1-yl)ethanol] | 0.2
C[C@@H](c1c(F)cc2ncccc2c1F)c1cnc2ccc(-c3cnn(CCO)c3)nn12 [Example 184, 2-(4-{3-[(S)-1-(5,7-Difluoro-quinolin-6-yl)-ethyl]-imidazo[1,2-b]pyridazin-6-yl}-pyrazol-1-yl)ethanol] | < 0.003
C[C@@H](c1ccc2ncn(C)c2c1)c1cnc2ccc(-c3cnn(CCO)c3)nn12 [Example 187, 2-(4-{3-[(S)-1-(3-Methyl-3H-benzoimidazol-5-yl)-ethyl]-imidazo[1,2-b]pyridazin-6-yl}-pyrazol-1-yl)-ethanol] | 0.019
C[C@@H](c1c(F)cc2ncccc2c1F)c1cnc2ccc(-c3cnn(C)c3)nn12 [Example 192, 5,7-Difluoro-6-{(S)-1-[6-(1-methyl-1H-pyrazol-4-yl)-imidazo[1,2-b]pyridazin-3-yl]-ethyl}-quinoline] | < 0.003
C[C@H](c1c(F)cc2ncccc2c1F)c1cnc2ccc(-c3cnn(C)c3)nn12 [Example 193, 5,7-Difluoro-6-{(R)-1-[6-(1-methyl-1H-pyrazol-4-yl)-imidazo[1,2-b]pyridazin-3-yl]-ethyl}-quinoline] | 0.25
C[C@@H](c1cc2cnn(C)c2cc1F)c1cnc2ccc(-c3cnn(C)c3)nn12 [Example 194, 3-[(S)-1-(6-Fluoro-1-methyl-1H-indazol-5-yl)-ethyl]-6-(1-methyl-1H-pyrazol-4-yl)-imidazo[1,2-b]pyridazine] | 0.018
C[C@@H](c1ccc2[nH]ncc2c1)c1cnc2ccc(-c3cnn(C)c3)nn12 [Example 195, 3-[(S)-1-(2H-Indazol-5-yl)-ethyl]-6-(1-methyl-1H-pyrazol-4-yl)-imidazo[1,2-b]pyridazine] | 0.014
C[C@@H](c1ccc2c(cnn2C)c1)c1cnc2ccc(-c3cnn(C)c3)nn12 [Example 196, 3-[(S)-1-(1-Methyl-1H-indazol-5-yl)-ethyl]-6-(1-methyl-1H-pyrazol-4-yl)-imidazo[1,2-b]pyridazine] | 0.036
FC(F)(c1ccc2ncccc2c1)c1cnc2ccc(-c3cnn(C4CCNCC4)c3)nn12 [Example 197, 6-{Difluoro-[6-(1-piperidin-4-yl-1H-pyrazol-4-yl)-imidazo[1,2-b]pyridazin-3-yl]-methyl}-quinoline] | 0.061
Cn1cc(-c2ccc3ncc(Cc4c[nH]c5ncccc45)n3n2)cn1 [Example 199, 6-(1-Methyl-1H-pyrazol-4-yl)-3-(1H-pyrrolo[2,3-b]pyridin-3-ylmethyl)-imidazo[1,2-b]pyridazine] | 0.0355
Cn1cc(-c2ccc3ncc(Cc4ccc5ncn(C)c5c4)n3n2)cn1 [Example 200, 3-(3-Methyl-3H-benzoimidazol-5-ylmethyl)-6-(1-methyl-1H-pyrazol-4-yl)-imidazo[1,2-b]pyridazine] | 0.023
Cn1cc(-c2ccc3ncc(Cc4ccc(O)cc4F)n3n2)cn1 [Example 202, 3-Fluoro-4-[6-(1-methyl-1H-pyrazol-4-yl)-imidazo[1,2-b]pyridazin-3-ylmethyl]-phenol] | 0.068
Cn1cc(-c2ccc3ncc(Cc4cn5ccnc5cc4F)n3n2)cn1 [Example 205, 3-(7-Fluoro-imidazo[1,2-a]pyridin-6-ylmethyl)-6-(1-methyl-1H-pyrazol-4-yl)-imidazo[1,2-b]pyridazine] | 0.047
N#Cc1ccc2ncc(Cc3ccc4ncccc4c3)n2n1 [Example 208, 3-Quinolin-6-ylmethyl-imidazo[1,2-b]pyridazine-6-carbonitrile] | 0.052
OCCn1cc(-c2ccc3ncc(Cc4ccc5ncccc5c4)n3n2)cn1 [Example 210, 2-[4-(3-Quinolin-6-ylmethyl-imidazo[1,2-b]pyridazin-6-yl)-pyrazol-1-yl]-ethanol] | 0.052
CCn1cc(-c2ccc3ncc(Cc4ccc5ncccc5c4)n3n2)cn1 [Example 211, 6-[6-(1-Ethyl-1H-pyrazol-4-yl)-imidazo[1,2-b]pyridazin-3-ylmethyl]-quinoline] | 0.086
c1cnc2ccc(Cc3cnc4ccc(-c5cn[nH]c5)nn34)cc2c1 [Example 212, 6-[6-(1H-Pyrazol-4-yl)-imidazo[1,2-b]pyridazin-3-ylmethyl]-quinoline] | 0.054
OCCn1cc(-c2ccc3ncc(Cc4ccc5nccn5c4)n3n2)cn1 [Example 215, 2-[4-(3-Imidazo[1,2-a]pyridin-6-ylmethyl-imidazo[1,2-b]pyridazin-6-yl)-pyrazol-1-yl]-ethanol] | 0.13
Cn1cnc2ccc(Cc3cnc4ccc(-c5cnn(CCO)c5)nn34)cc21 [Example 217, 2-{4-[3-(3-Methyl-3H-benzoimidazol-5-ylmethyl)-imidazo[1,2-b]pyridazin-6-yl]-pyrazol-1-yl}-ethanol] | 0.084

Compound | IC50 [µM]
OCCn1cc(-c2ccc3ncc(Cc4ccc(O)cc4F)n3n2)cn1 [Example 219, 3-Fluoro-4-{6-[1-(2-hydroxy-ethyl)-1H-pyrazol-4-yl]-imidazo[1,2-b]pyridazin-3-ylmethyl}-phenol] | 0.12
OCCn1cc(-c2ccc3ncc(Cc4ccc(O)cc4)n3n2)cn1 [Example 220, 4-{6-[1-(2-Hydroxy-ethyl)-1H-pyrazol-4-yl]-imidazo[1,2-b]pyridazin-3-ylmethyl}-phenol] | 0.33
CC(c1ccc2ncccc2c1Cl)c1cnc2ccc(-c3cnn(C4CCN(C)CC4)c3)nn12 (stereo not shown) [Example 224, 5-Chloro-6-(1-{6-[1-(1-methyl-piperidin-4-yl)-1H-pyrazol-4-yl]-imidazo[1,2-b]pyridazin-3-yl}-ethyl)-quinoline] | 0.028
OCCn1cc(-c2ccc3ncc(Cc4ccc5ncccc5c4Cl)n3n2)cn1 [Example 226, 2-{4-[3-(5-Chloro-quinolin-6-ylmethyl)-imidazo[1,2-b]pyridazin-6-yl]-pyrazol-1-yl}-ethanol] | 0.025
Clc1c(Cc2cnc3ccc(-c4cnn(C5CCNCC5)c4)nn23)ccc2ncccc12 [Example 227, 5-Chloro-6-[6-(1-piperidin-4-yl-1H-pyrazol-4-yl)-imidazo[1,2-b]pyridazin-3-ylmethyl]-quinoline] | 0.078
CN1CCC(n2cc(-c3ccc4ncc(Cc5ccc6ncccc6c5Cl)n4n3)cn2)CC1 [Example 228, 5-Chloro-6-{6-[1-(1-methyl-piperidin-4-yl)-1H-pyrazol-4-yl]-imidazo[1,2-b]pyridazin-3-ylmethyl}-quinoline] | 0.099
CC(=O)N1CCC(n2cc(-c3ccc4ncc(Cc5cc6cccnc6cc5F)n4n3)cn2)CC1 [Example 230, 1-(4-{4-[3-(7-Fluoro-quinolin-6-ylmethyl)-imidazo[1,2-b]pyridazin-6-yl]-pyrazol-1-yl}-piperidin-1-yl)-ethanone] | 0.027
Fc1cc2ncccc2cc1Cc1cnc2ccc(-c3cnn(CCN4CCCC4)c3)nn12 [Example 231, 7-Fluoro-6-{6-[1-(2-pyrrolidin-1-yl-ethyl)-1H-pyrazol-4-yl]-imidazo[1,2-b]pyridazin-3-ylmethyl}-quinoline] | 0.026
Fc1cc2ncccc2cc1Cc1cnc2ccc(-c3cnn(CCN4CCOCC4)c3)nn12 [Example 232, 7-Fluoro-6-{6-[1-(2-morpholin-4-yl-ethyl)-1H-pyrazol-4-yl]-imidazo[1,2-b]pyridazin-3-ylmethyl}-quinoline] | 0.066
COCCOCCn1cc(-c2ccc3ncc(Cc4cc5cccnc5cc4F)n3n2)cn1 [Example 233, 7-Fluoro-6-(6-{1-[2-(2-methoxy-ethoxy)-ethyl]-1H-pyrazol-4-yl}-imidazo[1,2-b]pyridazin-3-ylmethyl)-quinoline] | 0.12
COCCn1cc(-c2ccc3ncc(Cc4cc5cccnc5cc4F)n3n2)cn1 [Example 234, 7-Fluoro-6-{6-[1-(2-methoxy-ethyl)-1H-pyrazol-4-yl]-imidazo[1,2-b]pyridazin-3-ylmethyl}-quinoline] | 0.11
c1cnc2ccc(Cc3cnc4ccc(-c5cnn(CCN6CCC6)c5)nn34)cc2c1 [Example 235, 6-{6-[1-(2-Azetidin-1-yl-ethyl)-1H-pyrazol-4-yl]-imidazo[1,2-b]pyridazin-3-ylmethyl}-quinoline] | 0.22
c1cnc2ccc(Cc3cnc4ccc(-c5cnn(CCN6CCCC6)c5)nn34)cc2c1 [Example 236, 6-{6-[1-(2-Pyrrolidin-1-yl-ethyl)-1H-pyrazol-4-yl]-imidazo[1,2-b]pyridazin-3-ylmethyl}-quinoline] | 0.37
CNCCn1cc(-c2ccc3ncc(Cc4ccc5ncccc5c4)n3n2)cn1 [Example 237, Methyl-{2-[4-(3-quinolin-6-ylmethyl-imidazo[1,2-b]pyridazin-6-yl)-pyrazol-1-yl]-ethyl}-amine] | 0.17
CN1CCC(n2cc(-c3ccc4ncc(Cc5ccc6ncccc6c5)n4n3)cn2)CC1 [Example 238, 6-{6-[1-(1-Methyl-piperidin-4-yl)-1H-pyrazol-4-yl]-imidazo[1,2-b]pyridazin-3-ylmethyl}-quinoline] | 0.23
C[C@@H](c1ccc2ncccc2c1)c1cnc2ccc(-c3cnn(C4CCN(C)CC4)c3)nn12 [Example 239, 6-((S)-1-{6-[1-(1-Methyl-piperidin-4-yl)-1H-pyrazol-4-yl]-imidazo[1,2-b]pyridazin-3-yl}-ethyl)quinoline] | 0.031
C[C@@H](c1ccc2ncccc2c1)c1cnc2ccc(-c3cn[nH]c3)nn12 [Example 240, 6-{(S)-1-[6-(1H-Pyrazol-4-yl)-imidazo[1,2-b]pyridazin-3-yl]-ethyl}-quinoline] | 0.0084
Cn1cc(-c2ccc3ncc(Cc4cc5cccnc5cc4Cl)n3n2)cn1 [Example 241, 7-Chloro-6-[6-(1-methyl-1H-pyrazol-4-yl)-imidazo[1,2-b]pyridazin-3-ylmethyl]-quinoline] | 0.0375
